Measurements published in BindingDB's records for PubMed 8968358 (University of California, 1996).

Molecular target: Muscarinic acetylcholine receptor M3 (Rattus norvegicus, UniProt P08483)
Sequence (P08483 whole entry): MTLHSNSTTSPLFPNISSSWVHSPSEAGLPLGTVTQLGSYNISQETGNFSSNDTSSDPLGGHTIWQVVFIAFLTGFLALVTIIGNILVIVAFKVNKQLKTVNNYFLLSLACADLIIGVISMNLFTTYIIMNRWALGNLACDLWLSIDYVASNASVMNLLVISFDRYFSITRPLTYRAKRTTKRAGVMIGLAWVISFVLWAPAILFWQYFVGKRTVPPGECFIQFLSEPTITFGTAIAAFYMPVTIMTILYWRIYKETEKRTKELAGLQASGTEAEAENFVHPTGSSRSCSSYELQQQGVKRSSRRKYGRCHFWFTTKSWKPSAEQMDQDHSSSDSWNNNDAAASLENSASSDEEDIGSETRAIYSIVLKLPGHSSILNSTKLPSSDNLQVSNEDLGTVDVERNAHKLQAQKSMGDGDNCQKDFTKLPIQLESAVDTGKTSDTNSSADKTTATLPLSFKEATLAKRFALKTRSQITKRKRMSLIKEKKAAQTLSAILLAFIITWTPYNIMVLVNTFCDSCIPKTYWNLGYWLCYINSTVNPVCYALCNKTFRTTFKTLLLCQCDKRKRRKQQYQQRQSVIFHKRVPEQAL

## C[N+](C)(C)CC#CCN1CCCC1=O
  Ki: 8.7 µM
